{"source": "patent US20210024628A1", "about": "“METHODS FOR MODULATING INNATE LYMPHOID CELL ACTIVITY, ANTIBODY DRUG CONJUGATES AND USES IN THERAPY” (INSERM (INSTITUT NATIONAL DE LA SANTÉ ET DE LA RECHERCHE …, priority 2018, published 2021)", "key": {"NK cells [1]": {"tested_on": "NK cells", "experiment": "In vitro splenocyte stimulation: NK cell degranulation (CD107a)", "type": "cell-based, mice", "conditions": "stimulation with anti-NK1.1 antibodies or PMA and ionomycine, data not shown", "experimental": "Splenocytes from control and GR^Ncr1-iCre mice were stimulated in vitro in complete culture medium (RPMI 10% FCS, 100 μg/ml penicillin/streptomycin, 2 mM 1-glutamine, 1 mM sodium pyruvate, and 0.01 M Hepes) with: 25 ng/ml IL-12 (eBiosciences), 25 ng/ml IL-15 (Peprotech) and 20 ng/ml IL-18 (MBL) alone or in combination, or with PMA (200 ng/ml, Sigma) and ionomycin (1 μg/ml, Sigma). For NK1.1 stimulation 96 well plates (Immulon 2HB) were coated overnight at 37° C. with 2.5 ul/well anti-NK1.1 Ab (PK136, eBiosciences) or IgG2a isotype control before cell plating. During stimulation, 250 or 500 nM corticosterone (Sigma; dissolved in ethanol) or the same volume of vehicle alone were added to the medium. Cells were stimulated at 37° C. in the presence of Golgi Stop and Golgi Plug from BD Biosciences. After 4 h of stimulation, the cells were washed and stained for FACS analysis. […]\nSingle-cell suspensions were obtained from the spleen by scratching it through 70 um cell strainer, or from the liver by scratching it through 100 um cell strainer and subsequent lymphocyte isolation on a 37.5%-67.5% Percoll gradient. […] Stained samples were analyzed in a BD LSRII flow cytometer (BD Biosciences). Apoptosis was detected with the FITC Annexin V Apoptosis Detection Kit I from BD Biosciences, according to the manufacturer's protocol."}, "NK cells [2]": {"tested_on": "NK cells", "experiment": "In vitro splenocyte stimulation with cytokines: PD1 expression (FACS)", "type": "cell-based, mice", "experimental": "Splenocytes from control and GR^Ncr1-iCre mice were stimulated in vitro in complete culture medium (RPMI 10% FCS, 100 μg/ml penicillin/streptomycin, 2 mM 1-glutamine, 1 mM sodium pyruvate, and 0.01 M Hepes) with: 25 ng/ml IL-12 (eBiosciences), 25 ng/ml IL-15 (Peprotech) and 20 ng/ml IL-18 (MBL) alone or in combination, or with PMA (200 ng/ml, Sigma) and ionomycin (1 μg/ml, Sigma). For NK1.1 stimulation 96 well plates (Immulon 2HB) were coated overnight at 37° C. with 2.5 ul/well anti-NK1.1 Ab (PK136, eBiosciences) or IgG2a isotype control before cell plating. During stimulation, 250 or 500 nM corticosterone (Sigma; dissolved in ethanol) or the same volume of vehicle alone were added to the medium. Cells were stimulated at 37° C. in the presence of Golgi Stop and Golgi Plug from BD Biosciences. After 4 h of stimulation, the cells were washed and stained for FACS analysis. For CD107a staining, 2.5 ul/well of anti-CD107a-FITC antibody (1D4B, BD Biosciences) were added during stimulation.\nSingle-cell suspensions were obtained from the spleen by scratching it through 70 um cell strainer, or from the liver by scratching it through 100 um cell strainer and subsequent lymphocyte isolation on a 37.5%-67.5% Percoll gradient. For isolation of small intestine lamina propria cells, intestines were cut longitudinally, then transversally in 2-3 cm pieces, thoroughly rinsed with PBS, and shaken for 30 minutes in PBS containing 10% FBS, 15 mM Hepes and 5 mM EDTA to remove intraepithelial and epithelial cells. Intestines were then digested with collagenase VIII (300UI/mL; Sigma) in complete RPMI for 45 minutes at 37° C. under agitation, and lamina propria lymphocytes were isolated on a 40%-100% Percoll gradient. Cells were incubated with the Fc blocking antibody (2.4G2) and with a fixable blue dead-cell stain kit (Invitrogen). Surface molecules were stained with antibodies against: CD45.2 (104), CD3 (145-2C11), CD19 (1D3), NK1.1 (PK136), CD49a (Ha31/8), CD11b (M1/70), MHCII (M5/114.15.2), TCRb (H57-597), PD1 (J43, and Hamster IgG2 isotype control), PDL1 (MIHS) from BD Biosciences; NKp46 (29A1.4), CD49b (DX5), F4/80 (BM8), Ly49H (3D10) from eBioscience; CD11c (N418), PD1 (RMP1-30, and Rat IgG2b isotype control), PDL2 (TY25) and Ly6G (1A8) from Biolegend. For intracellular staining, cells were fixed and permeabilized with an intracellular staining kit (eBioscience), and the following antibodies were used: anti-IFN-(XMG1.2) from Biolegend; anti-granzyme B (GB11), anti-Rort (Q31-378), anti-IL17 (TC11-18H10), anti-Ki67 (B56) from BD Biosciences, anti-IL-22 (JOP eBioscience, coupled to Alexa Fluor 647 with an antibody labeling kit from Life Technologies), anti-GR XP rabbit mAb (D8H2) and rabbit mAb IgG XP (DA1E) from Cell Signaling Technology. Stained samples were analyzed in a BD LSRII flow cytometer (BD Biosciences). Apoptosis was detected with the FITC Annexin V Apoptosis Detection Kit I from BD Biosciences, according to the manufacturer's protocol."}}}
{"smiles": "C[C@]12C[C@H](O)[C@H]3[C@@H](CCC4=CC(=O)CC[C@@]43C)[C@@H]1CC[C@@H]2C(=O)CO", "note": "[Corticosterone, (11β)-11,21-Dihydroxypregn-4-ene-3,20-dione]", "values": [{"measurement": "ability of NK cells to degranulate (measured by their CD107a expression)", "setting": "NK cells [1]", "value": "did not affect"}, {"measurement": "PD1 expression on NK cells", "setting": "NK cells [2]; corticosterone (250 or 500 nM) with the combination IL-15+IL-18, splenocytes, 4 h", "value": "able to induce PD1 expression on NK cells, in a dose-dependent manner"}, {"measurement": "PD1 expression on NK cells", "setting": "NK cells [2]; corticosterone alone, splenocytes, 4 h at 37° C.", "value": "not able to induce PD1 expression"}, {"measurement": "PD1 induction on T cells", "setting": "NK cells [2]; corticosterone in addition to IL-15 and IL-18", "value": "not observed"}, {"measurement": "PD1 induction on NK cells from GR^Ncr1-iCre mice", "setting": "NK cells [2]; corticosterone in addition to IL-15 and IL-18, GR-deficient NK cells", "value": "not observed"}, {"measurement": "PD1 expression on NK cells", "setting": "NK cells [2]; corticosterone in the presence of IL-15, splenocytes, 4 h", "value": "not able to induce PD1 expression"}, {"measurement": "PD1 expression on NK cells", "setting": "NK cells [2]; corticosterone with IL-15+IL-18 and addition of IL-12", "value": "abrogate this effect"}]}
